Results published in patent US10208033B2, “β-carboline, dihydro-β-carboline and tetrahydro-β-carboline alkaloid derivatives and preparation methods same and use in aspects of preventing and treating plant viruses, fungicides and insecticides” (NANKAI UNIVERSITY, priority 2013, dated 2019).

Tests used:
cotton bollworms = assay: whole plant or invertebrate; conditions: Helicoverpa armigera, in Gossypium hirsutum, read-out: Cotton bollworm Mortality (%)
Procedure: Experimental method of cotton bollworms: feed and drug mixing method: measure 3 mL of prepared solution and add it to about 27 g of newly prepared feed, thereby obtaining needed concentration through dilution by 10 times.

Phytophthora capsici = assay: Fungicidal (bactericidal) activity in vitro, PDA colony diameter; type: cell-based; conditions: Phytophthora capsici, 96 h; 50 mg/kg
Bipolaria maydis = assay: organism not typed; type: cell-based; conditions: read-out: Bactericidal activity (%) Bipolaria maydis
Fusarium graminearumt = assay: microbe, parasite or virus in culture; type: cell-based; conditions: Fusarium, 96 h, read-out: Bactericidal activity (%) Fusarium graminearumt
Botrytis cinerea = assay: Fungicidal (bactericidal) activity in vitro, PDA colony diameter; type: cell-based; conditions: Botrytis cinerea, 96 h; 50 mg/kg
armyworms = type: in vivo; conditions: concentration 600 mg/kg
Rhizoctonia cereali = assay: Fungicidal (bactericidal) activity in vitro, PDA colony diameter; type: cell-based; conditions: Rhizoctonia, 96 h; 50 mg/kg
[1] = test system: tobacco mosaic virus (TMV); assay: Anti-TMV in vivo therapeutic effect; parameters: species or system tobacco mosaic virus (host Nicotiana tabacum L.cv.Xanthi NN); conditions: Tobacco mosaic virus, read-out: Relative inhibition rate (%) In vivo therapy; for inhibition at 100 µg/mL: treatment dose 100 μg/mL; for inhibition at 500 µg/mL: treatment dose 500 μg/mL
[2] = test system: Colletotrichum orbiculare; assay: Fungicidal (bactericidal) activity in vitro, PDA colony diameter; type: cell-based; conditions: Colletotrichum orbiculare, 96 h; 50 mg/kg
[3] = test system: tobacco mosaic virus (TMV); assay: Anti-TMV in vitro effect (half-leaf soaking); type: cell-based, tobacco mosaic virus (host Nicotiana tabacum L.cv.Xanthi NN); conditions: Tobacco mosaic virus, read-out: Relative inhibition rate (%) In vitro activity; for inhibition at 100 µg/mL: treatment dose 100 μg/mL; for inhibition at 500 µg/mL: treatment dose 500 μg/mL
Macrophoma kawatsukai = assay: Fungicidal (bactericidal) activity in vitro, PDA colony diameter; type: cell-based; conditions: 50 mg/kg
corn borers = assay: whole plant or invertebrate; conditions: read-out: Corn borer Mortality (%)
[4] = test system: tobacco mosaic virus (TMV); assay: Anti-TMV in vivo protective effect; parameters: species or system tobacco mosaic virus (host Nicotiana tabacum L.cv.Xanthi NN); conditions: Tobacco mosaic virus, read-out: Relative inhibition rate (%) In vivo protection; for inhibition at 100 µg/mL: treatment dose 100 μg/mL; for inhibition at 500 µg/mL: treatment dose 500 μg/mL
mosquito larvae = assay: whole plant or invertebrate; conditions: Culex pipiens, 24 h, read-out: Mosquito larvae Mortality (%)
Method in brief: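 Early fourth-instar Culex pipiens pallens larvae from an indoor colony, 10 per beaker, exposed to test compound at 5 ppm in water, diluted from a 1000 ppm acetone mother solution. Blank: water containing 0.5 mL test solvent.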

Sclerotinia scleotiorum = assay: Fungicidal (bactericidal) activity in vitro, PDA colony diameter; type: cell-based; conditions: Sclerotinia, 96 h; 50 mg/kg
Alternaria solani = assay: as above; type: cell-based; conditions: Alternaria solani, 96 h; 50 mg/kg
[5] = test system: tobacco mosaic virus (TMV); assay: Anti-TMV in vivo inactivation; parameters: species or system tobacco mosaic virus (host Nicotiana tabacum L.cv.Xanthi NN); conditions: Tobacco mosaic virus, read-out: Relative inhibition rate (%) In vivo inactivation; for inhibition at 100 µg/mL: treatment dose 100 μg/mL; for inhibition at 500 µg/mL: treatment dose 500 μg/mL
potato late blight = assay: microbe, parasite or virus in culture; type: cell-based; conditions: Phytophthora infestans, 96 h, read-out: Bactericidal activity (%) potato late blight
Fusarium fujikuroi = assay: Fungicidal (bactericidal) activity in vitro, PDA colony diameter; type: cell-based; conditions: Fusarium fujikuroi, 96 h; 50 mg/kg
Rhizoctonia solani = assay: as above; type: cell-based; conditions: Rhizoctonia solani, 96 h; 50 mg/kg
cucumber fusarium wilt = assay: as above; type: cell-based; conditions: Fusarium, 96 h; 50 mg/kg
Cercospora arachidicola = assay: as above; type: cell-based; conditions: Mycosphaerella arachidis, 96 h; 50 mg/kg

Structure (SMILES)	mortality at 600 mg/kg (cotton bollworms) [%]	inhibition of growth at 50 mg/kg (Phytophthora capsici) [%]	inhibition at 50 mg/kg (Bipolaria maydis) [%]	inhibition of growth at 50 mg/kg (Fusarium graminearumt) [%]	inhibition of growth at 50 mg/kg (Botrytis cinerea) [%]	Armyworm Mortality (%) (armyworms)	inhibition of growth at 50 mg/kg (Rhizoctonia cereali) [%]	inhibition at 100 µg/mL [1] [%]	inhibition at 500 µg/mL [1] [%]	inhibition of growth at 50 mg/kg [2] [%]	inhibition at 100 µg/mL [3] [%]	inhibition at 500 µg/mL [3] [%]	inhibition at 50 mg/kg (Macrophoma kawatsukai) [%]	mortality at 600 mg/kg (corn borers) [%]	inhibition at 100 µg/mL [4] [%]	inhibition at 500 µg/mL [4] [%]	mortality at 10 mg/kg (mosquito larvae) [%]	inhibition of growth at 50 mg/kg (Sclerotinia scleotiorum) [%]	inhibition of growth at 50 mg/kg (Alternaria solani) [%]	inhibition at 100 µg/mL [5] [%]	further results
C[C@@H]1N[C@H](C(=O)NC2CCCCC2)Cc2c1[nH]c1ccccc21 [Ib-17, (1S, 3S)—N-cyclohexyl-1-methyl-2,3,4,9-tetrahydro-pyridino [3,4-b] indol-3-formamide]	30	37.5	45.5	59.5	27.3	45	71.1	15.1	44.6	50	0	38.8	47.6	40	14.2	37.1	100	33.3	52.6	12.3	mortality at 5 mg/kg (mosquito larvae): 10%; inhibition at 500 µg/mL [5]: 43.3%; inhibition of growth at 50 mg/kg (potato late blight): 31.8%; inhibition of growth at 50 mg/kg (Fusarium fujikuroi): 28.6%; inhibition of growth at 50 mg/kg (Rhizoctonia solani): 50%; inhibition of growth at 50 mg/kg (cucumber fusarium wilt): 34.6%; inhibition of growth at 50 mg/kg (Cercospora arachidicola): 69.2%
C[C@@H]1N[C@H](C(=O)NCN(C)C)Cc2c1[nH]c1ccccc21 [Ib-19, (1S, 3S)—N-((dimethylamino)methyl)-1-methyl-2,3,4,9-tetrahydro-pyridino [3,4-b] indol-3-formamide]	60	7.9	24	27.6	27.3	5	47.1	0	20.9	25.9	0	26.6	55.6	10	0	24.7	20	35.3	25	0	inhibition at 500 µg/mL [5]: 18.5%; inhibition of growth at 50 mg/kg (potato late blight): 20%; inhibition of growth at 50 mg/kg (Fusarium fujikuroi): 21.4%; inhibition of growth at 50 mg/kg (Rhizoctonia solani): 26.3%; inhibition of growth at 50 mg/kg (cucumber fusarium wilt): 19.2%; inhibition of growth at 50 mg/kg (Cercospora arachidicola): 41.2%
